Test results from PubChem BioAssay AID1963427 (Molecular Pharmacology Branch, DTP, NCI, 2024).
“And” between values parts separate entries of the source, which are not always exact repeats. Equal values may be shown once. Each block holds one compound with its values, some of them ahead of it.

System: 317291-083-R-J1-PDC complex spheroid growth
Assay: Anticancer human tumor 317291-083-R-J1-PDC patient-derived soft tissue sarcoma cell line growth inhibition [Asc]
Details: for viability, T/C: stronger effect = lower value
Method: Multicellular complex tumor spheroid response to apoptosis pathway targeting inhibitors Alrizomadlin, Pelcitoclax, and Dasminapant in combination with a variety of drugs and investigational agents in selected tumor cell lines
The MDM2 inhibitor alrizomadlin, the Bcl-2/Bcl-xL inhibitor pelcitoclax, and the IAPs inhibitor dasminapant were evaluated both individually and in combination with standard of care and investigational anticancer small molecules within a complex spheroid model of solid tumors. . Complex spheroids include a stromal component modeled by human endothelial cells (HUVEC) and fibroblasts modeled by human mesenchymal stem cells (MSCs). The concentration ranges selected for each drug and investigational agent were based upon clinically achievable concentrations if the clinical Cmax of the agent was known.
Compounds. The drugs and investigational agents: alrizomadlin (APG-115; NSC831270), pelcitoclax (APG-1252; NSC835773), dasminapant (APG-1387;NSC834197), TAK-243 (NSC785004), copanlisib (NSC809693), olaparib (NSC753686), talazoparib (NSC767125), cobimetinib (NSC 768068), eltanexor (KPT-8602, NSC 794443), abemaciclib (NSC 768073), sotorasib (NSC818433), adagrasib (NSC 831453), MRTX-1133 (NSC 836407), Iadademestat (ORY1001, NSC 806812), and RMC-4630 (NSC839698), were obtained from the NCI Developmental Therapeutics Program Chemical Repository. The FDA-approved anticancer drug set is available from the Developmental Therapeutics Program at https://dtp.cancer.gov/organization/dscb/obtaining/available plates.htm. […] The stock solutions were prepared in dimethyl sulfoxide (DMSO, Sigma-Aldrich, St. Louis, MO, cat. D2650) at 800-fold the tested concentration and stored at -70 degrees C prior to their use. All drugs and investigational agents were tested over a range starting from a high concentration at or near the clinical Cmax and decreasing in half-log increments. If the clinical Cmax for an agent had not been determined, the highest concentration tested was 10 microM.
The patient-derived cancer (PDC) cell lines include five colon adenocarcinomas: 186277-243-T-J2-PDC, 616215-338-R-J1-PDC, 439559-082-T-J2-PDC, 463943-066-T-J2-PDC, and 519858-162-T-J1-PDC; three pancreatic carcinomas: 323965-272-R-J2-PDC, 521955-158-R6-J3-PDC, and 521955-158-R2-J5-PDC; two uterine sarcomas: 327498-152-R-J2-PDC and 993429-296-R-J1-PDC; two rhabdomyosarcomas: 755483-174-R-J1-PDC and 772245-204-R-J1-PDC; two soft tissue sarcomas: 126254-015-R-J1-PDC and 494315-158-R-J1-PDC; two malignant fibrous histiocytomas: 317291-083-R-J1-PDC and 596521-263-R-J1-PDC; two breast carcinomas: 171881-019-R-J1-PDC and 885512-296-R-J2-PDC; and one ovarian carcinoma: 6556581-035-R-J-PDC were obtained from the NCI PDMR, (https://pdmr.cancer.gov). The established cell lines HSSY-2 synovial sarcoma (RRID:CVCL 8719), SYO-1 synovial sarcoma (RRID:CVCL_7146), MPNST malignant peripheral neural sheath tumor were obtained from the Sloan Kettering Institute. The following established cell lines were purchased from the American Type Culture Collection (ATCC, Manassas, VA), Sor the received from the NCI repository:, PANC-1 pancreatic carcinoma (CRL-1469, RRID:CVCL_0480), OVCAR-5 ovarian carcinoma (RRID:CVCL_1628), OVCAR-8 ovarian carcinoma (RRID:CVCL_1629), , MCF-7 breast carcinoma (CRL-12584, RRID:CVCL_0031), MDA-MB-231 breast carcinoma (CRL-12532, RRID:CVCL_0062), NCI-H1876 small cell lung carcinoma (CRL-5902, RRID:CVCL_1503), NCI-H510A small cell lung carcinoma (HTB-184, RRID:CVCL_1565), NCI-H1417 (CRL-5869, RRID:CVCL_1469), and NCI-H196 small cell lung carcinoma (CRL-5823, RRID:CVCL_1509). Dr. Peter Houghton (Greehey Children's Cancer Research Institute, University of Texas Health Science Center, San Antonio, TX) provided Rh-18 rhabdomyosarcoma (RRID:CVCL_1659). Pooled donor human umbilical vein endothelial cells (HUVEC, Lonza, cat. CC-2519) and human mesenchymal stem cells (hMSC, Lonza, cat. PT-2501) were purchased from Lonza (Walkersville, MD).
Cell Culture. […]
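Also: compound exposure lasted seven days after spheroids formed for three days.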
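For viability, T/C in this document: 100% = DMSO vehicle control wells.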

IC50 (curve of first compound, second compound 0.00949 µM): 34.2 nM
IC50 (curve of first compound, second compound 0.03 µM): 21.5 nM
IC50 (curve of first compound, second compound 0.0949 µM): 23.8 nM
IC50 (curve of first compound, second compound 0.3 µM): 24.3 nM
IC50 (curve of first compound, second compound 0.949 µM): 23.6 nM
IC50 (curve of first compound, second compound 3 µM): 18.2 nM
Structure (SMILES): NC(=O)C(=Cn1cnc(-c2cc(C(F)(F)F)cc(C(F)(F)F)c2)n1)c1cncnc1 + CCN1C(C(=O)NC23CCC(C(=O)O)(CC2)CC3)C(c2cccc(Cl)c2F)C2(C(=O)Nc3cc(Cl)ccc32)C12CCCCC2
viability, T/C (second compound 0.00949 µM, first compound 0.000949 µM): 97.9%
viability, T/C (second compound 0.00949 µM, first compound 0.003 µM): 83.4%
viability, T/C (second compound 0.00949 µM, first compound 0.00949 µM): 79.2%
viability, T/C (second compound 0.00949 µM, first compound 0.03 µM): 57.7%
viability, T/C (second compound 0.00949 µM, first compound 0.0949 µM): 10%
viability, T/C (second compound 0.00949 µM, first compound 0.3 µM): 2.56%
viability, T/C (second compound 0.03 µM, first compound 0.000949 µM): 118%
viability, T/C (second compound 0.03 µM, first compound 0.003 µM): 87.6%
viability, T/C (second compound 0.03 µM, first compound 0.00949 µM): 84.8%
viability, T/C (second compound 0.03 µM, first compound 0.03 µM): 38.2%
viability, T/C (second compound 0.03 µM, first compound 0.0949 µM): 5.81%
viability, T/C (second compound 0.03 µM, first compound 0.3 µM): 2.23%
viability, T/C (second compound 0.0949 µM, first compound 0.000949 µM): 94.6%
viability, T/C (second compound 0.0949 µM, first compound 0.003 µM): 109%
viability, T/C (second compound 0.0949 µM, first compound 0.00949 µM): 72.4%
viability, T/C (second compound 0.0949 µM, first compound 0.03 µM): 46.4%
viability, T/C (second compound 0.0949 µM, first compound 0.0949 µM): 10.3%
viability, T/C (second compound 0.0949 µM, first compound 0.3 µM): 2.94%
viability, T/C (second compound 0.3 µM, first compound 0.000949 µM): 95.1%
viability, T/C (second compound 0.3 µM, first compound 0.003 µM): 106%
viability, T/C (second compound 0.3 µM, first compound 0.00949 µM): 74.6%
viability, T/C (second compound 0.3 µM, first compound 0.03 µM): 47.4%
viability, T/C (second compound 0.3 µM, first compound 0.0949 µM): 7.13%
viability, T/C (second compound 0.3 µM, first compound 0.3 µM): 2.81%
viability, T/C (second compound 0.949 µM, first compound 0.000949 µM): 110%
viability, T/C (second compound 0.949 µM, first compound 0.003 µM): 90.3%
viability, T/C (second compound 0.949 µM, first compound 0.00949 µM): 69.6%
viability, T/C (second compound 0.949 µM, first compound 0.03 µM): 55.6%
viability, T/C (second compound 0.949 µM, first compound 0.0949 µM): 4.34%
viability, T/C (second compound 0.949 µM, first compound 0.3 µM): 2.96%
viability, T/C (second compound 3 µM, first compound 0.000949 µM): 100%
viability, T/C (second compound 3 µM, first compound 0.003 µM): 87.2%
viability, T/C (second compound 3 µM, first compound 0.00949 µM): 76.8%
viability, T/C (second compound 3 µM, first compound 0.03 µM): 27.7%
viability, T/C (second compound 3 µM, first compound 0.0949 µM): 21.7%
viability, T/C (second compound 3 µM, first compound 0.3 µM): 2.15%

IC50 (curve of compound): 2890 nM and 2460 nM and 3470 nM
Structure (SMILES): C=C(F)C(=O)N1CCN(c2nc(OCC3CCCN3C)nc3c2CCN(c2cccc4cccc(Cl)c24)C3)CC1CC#N (centres undefined)
viability, T/C (compound 0.0316 µM): 83.4% and 107% (2×)
viability, T/C (compound 0.1 µM): 76.7% and 88.1% and 99.1%
viability, T/C (compound 0.316 µM): 93.2% and 95.1% and 113%
viability, T/C (compound 1 µM): 89% and 89.6% and 87.7%
viability, T/C (compound 3.16 µM): 47% and 39% and 55.3%
viability, T/C (compound 10 µM): 0.16% and 0.29% and 0.23%
